According to ChEMBL document CHEMBL1151812, “Homotyrosine-containing cyanopeptolins 880 and 960 and anabaenopeptins 908 and 915 from Planktothrix agardhii CYA 126/8” (J Nat Prod, 2009):
Calls of active or inactive are those of the source. The calls are words filed in the database; no cut-off is given here. Numbered stars: 1 amine (or outer) side, 2 acyl side, 3 side chain; on linkers, the order of the positions; unused ones are H or OH. Bridge positions count the residues as written; N and C are the ends. Square brackets hold non-standard residues; d marks the D form. Peptide text beside a SMILES is read from it. NMehTyr = CN[C@@H](CCc1ccc(O)cc1)C(=O)O; hTyr = N[C@@H](CCc1ccc(O)cc1)C(=O)O; CO = O=C([*:1])[*:2]

Assays:
[1] = target: T1, Carboxypeptidase A1 (Homo sapiens) (UniProt P15085); assay: Inhibition of carboxypeptidase A up to 20 ug/ml
T1 sequence (whole entry): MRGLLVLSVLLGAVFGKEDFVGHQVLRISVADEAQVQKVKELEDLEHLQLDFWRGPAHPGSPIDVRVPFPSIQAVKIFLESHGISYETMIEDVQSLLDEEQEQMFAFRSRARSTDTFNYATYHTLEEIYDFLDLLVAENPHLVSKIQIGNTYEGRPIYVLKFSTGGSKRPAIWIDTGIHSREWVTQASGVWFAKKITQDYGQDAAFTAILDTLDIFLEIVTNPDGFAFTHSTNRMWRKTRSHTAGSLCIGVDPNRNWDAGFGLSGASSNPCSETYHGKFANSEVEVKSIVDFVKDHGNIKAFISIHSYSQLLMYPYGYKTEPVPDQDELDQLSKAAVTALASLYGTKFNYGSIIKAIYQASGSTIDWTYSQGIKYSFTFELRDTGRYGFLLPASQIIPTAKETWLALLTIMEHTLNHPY

[2] = Inhibition of trypsin up to 100 ug/ml
[3] = Inhibition of chymotrypsin up to 100 ug/ml
Carboxypeptidase A1 = target: T2, Carboxypeptidase A1 (Homo sapiens, UniProt P15085); assay: Inhibition of carboxypeptidase A
T2 sequence (P15085 whole entry): T1 sequence (whole entry)

| Activity [1] | Activity [2] | Activity [3] | IC50 (Carboxypeptidase A1) [nM] | Compound |
| --- | --- | --- | --- | --- |
| inactive | inactive | inactive |  | CC[C@H](C)[C@@H]1NC(=O)[C@H](CCc2ccc(O)cc2)N(C)C(=O)[C@H](CCc2ccc(O)cc2)NC(=O)[C@H](C(C)C)NC(=O)[C@H](NC(=O)N[C@@H](CCCNC(=N)N)C(=O)O)CCCCNC1=O ({Arg-CO}-[dK]V[hTyr][NMehTyr]I; lactam 1-C) |
|  | inactive | inactive | 131 | CC[C@H](C)[C@@H]1NC(=O)[C@H](CCc2ccc(O)cc2)N(C)C(=O)[C@H](CCc2ccc(O)cc2)NC(=O)[C@H](C(C)C)NC(=O)[C@H](NC(=O)N[C@@H](Cc2ccc(O)cc2)C(=O)O)CCCCNC1=O [ANABAENOPEPTIN 915] ({Tyr-CO}-[dK]V[hTyr][NMehTyr]I; lactam 1-C) |
